According to patent publication US20240027453A1, “METHOD FOR DETECTION AND QUANTITATIVE MONITORING OF INFECTIONS WITH HERPESVIRUSES” (The Trustees of Princeton University, priority 2020, published 2024):
Read-outs that look alike come from different tables or passages of the source.

Test system: HCMV
Type: cell-based
Method: In example herpesvirus PRM assay methods shown herein, cell pellets were lysed in 2% SDS, 100 mM NaCl, 0.5 mM EDTA, 50 mM Tris, pH 8.2, and 50 μg of protein was reduced and alkylated with 25 mM TCEP and 50 mM CAM respectively for 20 min at 70° C. Proteins were then precipitated via methanol chloroform precipitation (Wessel & Flugg, Anal Biochem. 138(1):141-143, 1984), resuspended in 50 mM HEPES, pH 8.2 and digested overnight with trypsin (50:1 protein:enzyme w/w ratio). Digested peptides were desalted by SDB-RPS StageTip as previously described (Lum et al., Cell Syst., 7(6):[…], 2018; Greco et al., Methods Mol Biol 1410:39-63, 2016; Federspiel & Cristea, Methods Mol Biol., 1977:115-143, 2019).
Peptides (1.0 μg on column) were analyzed by LC-MS/MS using a Dionex Ultimate 3000 UHPLC coupled online to an EASYSpray ion source and a Q Exactive HF. Peptides were separated on an EASYSpray C18 column (75 μm×25 cm) heated to 50° C. using a linear gradient of 5% B to 32% B over 60 min at a flow rate of 250 nL/min and were ionized at 1.7 kv. Mobile phase A consisted of 0.1% FA in H2O and mobile phase B consisted of 0.1% FA, 2.9% H2O in ACN.
The PRM method was controlled by a peptide inclusion list with retention time windows of 6 min for selected precursor ions.
The PRM assay was developed and analyzed using the open-source software Skyline (Maclean et al., Bioinformatics 26(7):966-968, 2010). Summed area under the curve of 3-4 transitions per peptide was used for quantitation. Targeted peptides were normalized to host protein loading control peptides. Peptide values for each sample were scaled to the average of each peptide across all runs. The average of multiple peptides was used as the inferred value for the protein measurement when more than one peptide was quantified (Federspiel et al., PLoS Biol. 17(9):e3000437. Doi: 10.1371/journal.pbio.3000437). PRM quantitation data were graphed using the Python Seaborn and Matplotlib libraries.
MRC5 primary human fibroblasts (HFs) (ATCC CCL-171) were used as the model system for HSV-1 and HCMV infections and were cultured in complete growth medium (DMEM supplemented with 10% fetal bovine serum and 1% penicillin-streptomycin antibiotics) at 37° C. and 5% CO2. iSLK.219 cells harboring latent KSHV (a gift from Dr. Britt Glaunsinger, University of California, Berkeley) were grown in complete growth medium supplemented with 500 μg/ml hygromycin (ThermoFisher Scientific, 10687010) at 37° C. and 5% CO2. All cells were used for experiments within a maximum of 10 passages.
Wild type HSV-1 strain 17+ (a gift from Beate Sodeik, Hannover Medical School, Hannover, Germany) was propagated as previously described (Diner et al., 2015). Briefly, PO stocks were generated by electroporating pBAC-HSV-1 into U-2 OS cells. […] In a similar manner, wild type HCMV strain AD169 was produced from BAC electroporation into HFs and working stocks were propagated by infecting HFs at a low level. In both cases, cell-associated virus was released by sonication, combined with supernatant virus, then concentrated by ultracentrifugation (20,000 rpm, 2 hours, 4° C. with SW28 swinging bucket rotor [Beckman Coulter]) over a 10% ficoll (HSV-1) or 20% sorbitol (HCMV) cushion. Virus stock titers were determined by plaque assay for HSV-1 or tissue culture infectious dose (TCID50) for HCMV and infections were performed at a multiplicity of infection (MOI) of 3.
12 hours prior to virus infection or reactivation, cells were treated with either the small molecule drug or DMSO/PBS control at an equivalent volume. […] For infection cycles lasting longer than 24 hours, small molecule drugs were re-added to the cell culture medium every 24 hours. Upon collection, cells were rinsed with PBS, scraped into a microcentrifuge tube, pelleted by centrifugation, and rinsed again with PBS.

Nc1c(S(=O)(=O)c2ccccc2)c2nc3ccccc3nc2n1-c1ccc(F)cc1 [CAY10602]
UL117 (P16770) protein level (timepoint 96, L): 0.3951 | gH (P12824) protein level (timepoint 96, L): 0.2835 | gL (P16832) protein level (timepoint 96, L): 0.2623 | gM (P16733) protein level (timepoint 96, L): 0.2653 | gN (P16795) protein level (timepoint 96, L): 0.3 | IR10 (P16808) protein level (timepoint 96, LL): 0.2057 | IR12 (P16810) protein level (timepoint 96, LL): 0.691 | TRM3 (P16732) protein level (timepoint 96, LL): 0.1638 | TRX1 (P16783) protein level (timepoint 96, LL): 0.107 | TRX2 (P16728) protein level (timepoint 96, LL): 0.1423 | UL24 (P16760) protein level (timepoint 96, LL): 0.2363 | UL40 (P16780) protein level (timepoint 96, LL): 0.5384 | UL47 (P16784) protein level (timepoint 96, LL): 0.2331 | UL49 (P16786) protein level (timepoint 96, LL): 0.2651 | UL69 (P16749) protein level (timepoint 96, LL): 0.3508 | UL70 (P17149) protein level (timepoint 96, LL): 0.6104 | UL83 (P06725) protein level (timepoint 96, LL): 0.1002 | UL132 (P69338) protein level (timepoint 96, LL): 0.23 | US15 (P09718) protein level (timepoint 96, LL): 0.4576 | CVC2 (P16726) protein level (timepoint 120, DE): 0.2864 | DBP (P17147) protein level (timepoint 120, DE): 1.237 | HELI (P16736) protein level (timepoint 120, DE): 0.9924 | IR01 (P09710) protein level (timepoint 120, DE): 0.5584 | NEC1 (P16794) protein level (timepoint 120, DE): 0.2446 | NEC2 (P16791) protein level (timepoint 120, DE): 0.5195 | RIR1 (P16782) protein level (timepoint 120, DE): 0.4577 | TRM1 (P16724) protein level (timepoint 120, DE): 0.5809 | UL4 (P17146) protein level (timepoint 120, DE): 0.3635 | UL26 (P16762) protein level (timepoint 120, DE): 0.7327 | UL32 (P08318) protein level (timepoint 120, DE): 0.3617 | UL34 (P16812) protein level (timepoint 120, DE): 0.476 | UL35 (P16766) protein level (timepoint 120, DE): 0.2648 | UL38 (P16779) protein level (timepoint 120, DE): 0.7917 | UL44 (P16790) protein level (timepoint 120, DE): 0.3691 | UL48 (P16785) protein level (timepoint 120, DE): 0.6239 | UL54 (P08546) protein level (timepoint 120, DE): 1.076 | UL71 (P16823) protein level (timepoint 120, DE): 0.6451 | UL78 (P16751) protein level (timepoint 120, DE): 0.6099 | UL84 (P16727) protein level (timepoint 120, DE): 0.5628 | UL95 (P16801) protein level (timepoint 120, DE): 0.6017 | UL96 (P16787) protein level (timepoint 120, DE): 0.8056 | UL97 (P16788) protein level (timepoint 120, DE): 0.6064 | UL98 (P16789) protein level (timepoint 120, DE): 0.7315 | UL102 (P16827) protein level (timepoint 120, DE): 1.128 | UL104 (P16735) protein level (timepoint 120, DE): 0.5969 | UL112/UL113 (P17151) protein level (timepoint 120, DE): 0.6787 | UL114 (P16769) protein level (timepoint 120, DE): 0.9011 | UL119/UL118 (P16739) protein level (timepoint 120, DE): 0.9064 | UL128 (P16837) protein level (timepoint 120, DE): 0.537 | US8 (P09730) protein level (timepoint 120, DE): 0.7858 | US9 (P09729) protein level (timepoint 120, DE): 0.8529 | US12 (P09721) protein level (timepoint 120, DE): 0.4687 | US13 (P09720) protein level (timepoint 120, DE): 0.889 | US14 (P09719) protein level (timepoint 120, DE): 0.6652 | US18 (P69334) protein level (timepoint 120, DE): 1.01 | US22 (P09722) protein level (timepoint 120, DE): 0.7763 | US23 (P09701) protein level (timepoint 120, DE): 0.7758 | US24 (P09700) protein level (timepoint 120, DE): 0.8183 | US34 (P09709) protein level (timepoint 120, DE): 0.4168 | gB (P06473) protein level (timepoint 120, DE): 0.6582 | IRS1 (P09715) protein level (timepoint 120, IE): 0.8786 | TRS1 (P09695) protein level (timepoint 120, IE): 0.7933 | UL13 (P16755) protein level (timepoint 120, IE): 0.4263 | UL36 (P16767) protein level (timepoint 120, IE): 0.8112 | UL37 (P16778) protein level (timepoint 120, IE): 0.8715 | UL122 (P19893) protein level (timepoint 120, IE): 0.4332 | UL123 (P13202) protein level (timepoint 120, IE): 0.6795 | CVC1 (P16799) protein level (timepoint 120, L): 0.5173 | GO (P16750) protein level (timepoint 120, L): 0.4236 | IR11 (P16809) protein level (timepoint 120, L): 1.205 | MCP (P16729) protein level (timepoint 120, L): 0.4497 | SCP (Q7M6N6) protein level (timepoint 120, L): 0.3169 | TRM2 (P16792) protein level (timepoint 120, L): 0.4883 | UL22A (P16845) protein level (timepoint 120, L): 0.9462 | UL25 (P16761) protein level (timepoint 120, L): 0.5081 | UL29 (P16764) protein level (timepoint 120, L): 0.8148 | UL30 (P16765) protein level (timepoint 120, L): 0.4064 | UL31 (P16848) protein level (timepoint 120, L): 0.5275 | UL43 (P16781) protein level (timepoint 120, L): 0.2294 | UL52 (P16793) protein level (timepoint 120, L): 0.6161 | UL76 (P16725) protein level (timepoint 120, L): 0.366 | UL79 (P16752) protein level (timepoint 120, L): 0.3998 | UL80 (P16753) protein level (timepoint 120, L): 0.5912 | UL82 (P06726) protein level (timepoint 120, L): 0.5561 | UL87 (P16730) protein level (timepoint 120, L): 0.3281 | UL88 (P16731) protein level (timepoint 120, L): 0.6339 | UL94 (P16800) protein level (timepoint 120, L): 0.5803 | UL99 (P13200) protein level (timepoint 120, L): 0.4749 | UL103 (P16734) protein level (timepoint 120, L): 0.5208 | UL117 (P16770) protein level (timepoint 120, L): 0.5442 | gH (P12824) protein level (timepoint 120, L): 0.5849 | gL (P16832) protein level (timepoint 120, L): 0.5768 | gM (P16733) protein level (timepoint 120, L): 0.6508 | gN (P16795) protein level (timepoint 120, L): 0.6429 | DUT (P16824) protein level (timepoint 120, LL): 0.5447 | IR10 (P16808) protein level (timepoint 120, LL): 0.4495 | IR12 (P16810) protein level (timepoint 120, LL): 0.797 | TRM3 (P16732) protein level (timepoint 120, LL): 0.383 | TRX1 (P16783) protein level (timepoint 120, LL): 0.3398 | TRX2 (P16728) protein level (timepoint 120, LL): 0.4401 | UL24 (P16760) protein level (timepoint 120, LL): 0.5907 | UL40 (P16780) protein level (timepoint 120, LL): 0.5612 | UL47 (P16784) protein level (timepoint 120, LL): 0.5287 | UL49 (P16786) protein level (timepoint 120, LL): 0.5619 | UL69 (P16749) protein level (timepoint 120, LL): 0.6101 | UL70 (P17149) protein level (timepoint 120, LL): 0.846 | UL83 (P06725) protein level (timepoint 120, LL): 0.4091 | UL132 (P69338) protein level (timepoint 120, LL): 0.4011 | US15 (P09718) protein level (timepoint 120, LL): 0.6187
